Measured values as given in ChEMBL document CHEMBL1949499, “Nicotinic acids: liver-targeted SCD inhibitors with preclinical anti-diabetic efficacy” (Bioorg Med Chem Lett, 2011).

How the values were obtained:
[1] = Drug uptake in high fat diet fed C57/BL6 mouse eDIO model whole blood at 100 mg/kg, po after 3 hrs; assay type: ADME, organism-based; design: dose 100 mg/kg, route oral; details: read-out: Drug uptake
[2] = Drug uptake in C57/BL6 mouse cerebellum at 30 mg/kg, po after 24 hrs; assay type: ADME, organism-based; design: dose 30 mg/kg, route oral; details: read-out: Drug uptake
[3] = Volume of distribution at steady state in C57/BL6 mouse at 10 mg/kg, po and 2 mg/kg, iv; assay type: ADME, organism-based; details: in vivo, read-out: Vdss
Stearoyl-CoA desaturase = target: T1, Stearoyl-CoA desaturase (Homo sapiens, UniProt O00767); experiment: Inhibition of human SCD1 expressed in human HepG2 cells assessed as conversion of [14C]stearic acid to [14C]oleic acid; assay type: cell-based
T1 sequence (O00767 whole entry): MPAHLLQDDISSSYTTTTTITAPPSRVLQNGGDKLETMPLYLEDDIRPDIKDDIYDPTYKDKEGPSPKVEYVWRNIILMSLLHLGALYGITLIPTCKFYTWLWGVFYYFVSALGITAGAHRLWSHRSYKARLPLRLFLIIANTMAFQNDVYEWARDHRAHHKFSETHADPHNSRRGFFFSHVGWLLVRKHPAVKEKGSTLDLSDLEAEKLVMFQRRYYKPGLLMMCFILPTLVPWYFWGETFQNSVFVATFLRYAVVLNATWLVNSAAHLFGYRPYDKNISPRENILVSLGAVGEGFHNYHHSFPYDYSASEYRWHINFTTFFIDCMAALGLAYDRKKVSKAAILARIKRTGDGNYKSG

[4] = Volume of distribution at steady state in Sprague-Dawley rat at 10 mg/kg, po and 2 mg/kg, iv; assay type: ADME, organism-based; details: in vivo, read-out: Vdss
[5] = Drug uptake in C57/BL6 mouse skin at 30 mg/kg, po after 6 hrs; assay type: ADME, organism-based, Zone of skin; design: dose 30 mg/kg, route oral; details: read-out: Drug uptake
Nucleic Acid [6] = experiment: Ratio of drug uptake in high fat diet fed C57/BL6 mouse eDIO model whole blood to high sucrose/fat free diet fed C57/BL6 mouse plasma; assay type: ADME; details: in vivo
[7] = Half life in C57/BL6 mouse at 10 mg/kg, po and 2 mg/kg, iv; assay type: ADME, organism-based; details: in vivo
[8] = Plasma clearance in C57/BL6 mouse at 10 mg/kg, po and 2 mg/kg, iv; assay type: ADME, organism-based
[9] = Drug uptake in high sucrose/fat free diet fed C57/BL6 mouse liver at 10 mg/kg, po after 3 hrs; assay type: ADME, organism-based; design: dose 10 mg/kg, route oral; details: read-out: Drug uptake
Mus musculus [10] = experiment: Inhibition of SCD activity in high sucrose/fat free diet fed C57/BL6 mouse liver assessed as reduction in conversion of [14C]stearic acid to [14C]oleic acid at 30 mg/kg, po; assay type: functional
[11] = Plasma concentration in C57/BL6 mouse at 30 mg/kg, po after 2 hrs; assay type: ADME, organism-based; design: dose 30 mg/kg, route oral
[12] = Drug uptake in C57/BL6 mouse skin at 30 mg/kg, po after 2 hrs; assay type: ADME, organism-based, Zone of skin; design: dose 30 mg/kg, route oral; details: read-out: Drug uptake
[13] = Drug uptake in high sucrose/fat free diet fed C57/BL6 mouse liver at 30 mg/kg, po after 3 hrs; assay type: ADME, organism-based; design: dose 30 mg/kg, route oral; details: read-out: Drug uptake
[14] = Plasma concentration in high sucrose/fat free diet fed C57/BL6 mouse at 100 mg/kg, po after 3 hrs; assay type: ADME, organism-based; design: dose 100 mg/kg, route oral
[15] = Drug uptake in C57/BL6 mouse cerebellum at 30 mg/kg, po after 6 hrs; assay type: ADME, organism-based; design: dose 30 mg/kg, route oral; details: read-out: Drug uptake
Mus musculus [16] = experiment: Acute antidiabetic activity in high fat diet fed po dosed C57/BL6 mouse eDIO model assessed as increase in glucose clearance administered 1 hr prior to glucose challenge by oGTT assay; assay type: functional, organism-based
Nucleic Acid [17] = experiment: Ratio of drug uptake in left median liver lobe to harderian gland in C57/BL6 mouse at 30 mg/kg, po after 6 hrs; assay type: ADME, organism-based; design: dose 30 mg/kg, route oral; details: in vivo
[18] = Plasma concentration in high sucrose/fat free diet fed C57/BL6 mouse at 10 mg/kg, po after 3 hrs; assay type: ADME, organism-based; design: dose 10 mg/kg, route oral
[19] = target: ATP-binding cassette sub-family C member 2 (Homo sapiens, UniProt Q92887); experiment: Binding affinity to MRP2 expressed in MDCK2 cells coexpressing OATP1B1; assay type: cell-based; details: dog, mdck-ii
[20] = Plasma concentration in high sucrose/fat free diet fed C57/BL6 mouse at 30 mg/kg, po after 3 hrs; assay type: ADME, organism-based; design: dose 30 mg/kg, route oral
[21] = AUC in Sprague-Dawley rat plasma at 10 mg/kg, po and 2 mg/kg, iv; assay type: ADME, organism-based
[22] = Drug uptake C57/BL6 in mouse left median liver lobe at 30 mg/kg, po after 6 hrs; assay type: ADME, organism-based; design: dose 30 mg/kg, route oral; details: read-out: Drug uptake
[23] = Plasma clearance in Sprague-Dawley rat at 10 mg/kg, po and 2 mg/kg, iv; assay type: ADME, organism-based
Mus musculus [24] = experiment: Inhibition of SCD activity in high sucrose/fat free diet fed C57/BL6 mouse liver assessed as reduction in conversion of [14C]stearic acid to [14C]oleic acid at 10 mg/kg, po; assay type: functional
[25] = Drug uptake in C57/BL6 mouse kidney at 30 mg/kg, po after 2 hrs; assay type: ADME, organism-based; design: dose 30 mg/kg, route oral; details: read-out: Drug uptake
[26] = AUC in C57/BL6 mouse plasma at 10 mg/kg, po and 2 mg/kg, iv; assay type: ADME, organism-based
[27] = Half life in Sprague-Dawley rat at 10 mg/kg, po and 2 mg/kg, iv; assay type: ADME, organism-based; details: in vivo
Acyl-CoA desaturase 1 [28] = target: T2, Acyl-CoA desaturase 1 (Rattus norvegicus, UniProt P07308); experiment: Inhibition of rat SCD1
T2 sequence (P07308 whole entry): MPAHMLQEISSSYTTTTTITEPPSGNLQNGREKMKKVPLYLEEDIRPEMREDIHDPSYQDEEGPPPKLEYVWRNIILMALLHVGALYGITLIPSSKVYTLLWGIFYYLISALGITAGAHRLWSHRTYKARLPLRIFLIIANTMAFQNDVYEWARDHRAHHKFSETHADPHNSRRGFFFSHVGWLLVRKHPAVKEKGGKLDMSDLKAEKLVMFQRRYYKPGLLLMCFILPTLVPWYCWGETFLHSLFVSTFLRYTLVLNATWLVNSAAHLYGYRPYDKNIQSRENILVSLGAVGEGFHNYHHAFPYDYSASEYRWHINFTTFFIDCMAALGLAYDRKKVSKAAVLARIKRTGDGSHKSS

[29] = Drug uptake in high fat diet fed C57/BL6 mouse eDIO model whole blood at 30 mg/kg, po after 3 hrs; assay type: ADME, organism-based; design: dose 30 mg/kg, route oral; details: read-out: Drug uptake
Acyl-CoA desaturase 1 [30] = target: T3, Acyl-CoA desaturase 1 (Mus musculus, UniProt P13516); experiment: Inhibition of mouse SCD1
T3 sequence (P13516 whole entry): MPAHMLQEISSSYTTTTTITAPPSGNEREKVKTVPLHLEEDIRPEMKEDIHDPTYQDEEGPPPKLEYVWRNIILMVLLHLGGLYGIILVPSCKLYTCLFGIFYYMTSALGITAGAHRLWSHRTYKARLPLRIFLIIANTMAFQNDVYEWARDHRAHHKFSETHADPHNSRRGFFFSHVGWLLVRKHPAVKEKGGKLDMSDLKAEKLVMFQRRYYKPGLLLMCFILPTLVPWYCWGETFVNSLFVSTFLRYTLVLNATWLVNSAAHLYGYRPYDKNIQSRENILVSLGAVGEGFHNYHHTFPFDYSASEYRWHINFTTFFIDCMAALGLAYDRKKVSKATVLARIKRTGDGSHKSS

[31] = Drug uptake in C57/BL6 mouse left epididymal fat at 30 mg/kg, po after 6 hrs; assay type: ADME, organism-based, Epididymal fat pad; design: dose 30 mg/kg, route oral; details: male, read-out: Drug uptake

Chain of ATP-binding cassette sub-family C member 2 (Q92887 whole entry): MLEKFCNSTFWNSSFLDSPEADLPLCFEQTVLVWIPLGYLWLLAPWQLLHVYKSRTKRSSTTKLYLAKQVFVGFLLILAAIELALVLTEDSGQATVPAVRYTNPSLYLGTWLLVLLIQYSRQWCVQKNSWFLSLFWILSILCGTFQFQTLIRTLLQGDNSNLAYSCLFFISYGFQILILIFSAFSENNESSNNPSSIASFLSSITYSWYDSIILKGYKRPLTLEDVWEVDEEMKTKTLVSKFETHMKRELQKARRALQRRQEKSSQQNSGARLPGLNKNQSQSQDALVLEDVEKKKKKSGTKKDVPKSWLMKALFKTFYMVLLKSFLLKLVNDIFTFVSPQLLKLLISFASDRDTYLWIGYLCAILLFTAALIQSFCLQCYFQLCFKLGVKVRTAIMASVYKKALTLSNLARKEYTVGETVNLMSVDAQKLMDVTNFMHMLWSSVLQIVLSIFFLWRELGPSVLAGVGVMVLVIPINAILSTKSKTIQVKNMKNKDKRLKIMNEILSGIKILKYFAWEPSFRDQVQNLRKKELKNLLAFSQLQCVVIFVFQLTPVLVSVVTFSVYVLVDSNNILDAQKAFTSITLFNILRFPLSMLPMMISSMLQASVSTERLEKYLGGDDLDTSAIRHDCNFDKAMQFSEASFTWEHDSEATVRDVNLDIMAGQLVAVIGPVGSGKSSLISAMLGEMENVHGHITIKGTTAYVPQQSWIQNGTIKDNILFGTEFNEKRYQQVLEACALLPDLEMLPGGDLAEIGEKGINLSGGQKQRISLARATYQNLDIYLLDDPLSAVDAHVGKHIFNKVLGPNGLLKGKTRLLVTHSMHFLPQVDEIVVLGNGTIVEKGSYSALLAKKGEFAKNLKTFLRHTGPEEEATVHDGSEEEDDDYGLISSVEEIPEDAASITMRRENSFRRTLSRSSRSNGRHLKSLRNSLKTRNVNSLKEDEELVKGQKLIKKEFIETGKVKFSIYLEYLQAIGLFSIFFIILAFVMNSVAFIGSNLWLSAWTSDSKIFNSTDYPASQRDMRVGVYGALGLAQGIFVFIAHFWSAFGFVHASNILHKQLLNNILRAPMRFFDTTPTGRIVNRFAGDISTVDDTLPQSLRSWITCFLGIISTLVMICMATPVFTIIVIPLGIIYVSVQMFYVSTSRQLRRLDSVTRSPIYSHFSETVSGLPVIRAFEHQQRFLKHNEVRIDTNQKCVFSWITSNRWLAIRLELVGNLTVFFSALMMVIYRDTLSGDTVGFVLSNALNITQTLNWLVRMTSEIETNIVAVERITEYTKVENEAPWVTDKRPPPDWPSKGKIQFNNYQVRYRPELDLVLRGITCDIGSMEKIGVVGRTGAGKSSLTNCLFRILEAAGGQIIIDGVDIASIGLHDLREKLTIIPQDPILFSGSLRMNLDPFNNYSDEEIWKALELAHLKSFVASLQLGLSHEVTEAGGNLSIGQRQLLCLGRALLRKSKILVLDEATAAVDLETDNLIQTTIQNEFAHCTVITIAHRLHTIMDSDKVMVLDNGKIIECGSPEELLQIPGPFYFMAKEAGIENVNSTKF

- concentration at 3 h [1]: 2240 nM
- concentration at 24 h [2]: 5 nM
- Vd [3]: 1.12 L/kg
- IC50 (Stearoyl-CoA desaturase): 6030 nM
- Vd [4]: 0.41 L/kg
- concentration at 6 h [5]: 55 nM
- Ratio (Nucleic Acid [6]): < 2
- half-life [7]: 24 min
- clearance [8]: 81 mL/min/kg
- concentration at 3 h [9]: 2970 nM
- concentration at 2 h [11]: 1210 nM
- concentration at 2 h [12]: 170 nM
- concentration at 3 h [13]: 9290 nM
- concentration at 3 h [14]: 4390 nM
- concentration at 6 h [15]: 17 nM
- Ratio (Nucleic Acid [17]): > 50
- concentration at 3 h [18]: 120 nM
- Activity [19]: Active
- concentration at 3 h [20]: 450 nM
- AUC [21]: 17.8 µM·h
- concentration at 6 h [22]: 5200 nM
- clearance [23]: 8.6 mL/min/kg
- concentration at 2 h [25]: 6140 nM
- AUC [26]: 0.3 µM·h
- half-life [27]: 84 min
- IC50 (Acyl-CoA desaturase 1 [28]): 15 nM
- concentration at 3 h [29]: 320 nM
- IC50 (Acyl-CoA desaturase 1 [30]): 9 nM
- concentration at 6 h [31]: 111 nM
SMILES: O=C(O)c1cncc(-c2ccc(N3CCC(Oc4cc(F)ccc4Br)CC3)nn2)c1
- inhibition in vivo at 30 mg/kg (Mus musculus [10]): 74%
- Activity (Mus musculus [16]): Dose-dependent effect
- inhibition in vivo at 10 mg/kg (Mus musculus [24]): 25%
